# Results published in patent publication US9157904B2, “Wnt antagonists and methods of treatment and screening” (OncoMed Pharmaceuticals, Inc., priority 2010, dated 2015).
# Several values for one entry are separate records, joined by “and”; a condition that tells them apart may be missing. Equal values may be shown once.
# How the values were obtained:
# PN13 tumors [1] = assay: CK20 immunohistochemistry of treated PN13 tumors; type: in vivo, NOD/SCID mice; conditions: vs control antibody
# Protocol: (§1) The cell differentiation capability of FZD8-Fc was also evaluated in the OMP-PN13 pancreas tumor xenograft model. Dissociated OMP-PN13 cells (50,000 per animal) were injected subcutaneously into 6-8 week old male NOD/SCID mice. Tumor growth was monitored weekly and tumor measurements were initiated once tumors were palpable. On day 40 mice with average tumor volume of 114 mm^3 were randomized into 4 groups of 10 animals each. Animals were injected with either control antibody or FZD8-Fc (15 mg/kg). Administration of the FZD8-Fc and control antibody was performed via injection into the intraperitoneal cavity, twice weekly. After 19 days of treatment, the tumors were excised and immunohistochemistry analysis was performed using standard techniques. Briefly, tumors were fixed in formalin, embedded in paraffin, and tumor sections of 4 μm thickness were cut. After deparaffinization and hydration, the tumor sections were subjected to an antigen retrieval process in Tris buffer (pH 9.5). Sections were incubated with hydrogen peroxide (Sigma-Aldrich, St Louis, Mo.) for 10 minutes to block endogenous peroxidases. […]
# Tumor sections were obtained and treated as described above. […] The bound antibody was detected using the immunohistochemistry protocol described above.
# C28 colon tumor = C28 colon tumor xenograft, FZD8-Fc variants (Example 17); type: in vivo, NOD/SCID mice; conditions: C28 established tumors; 15 mg/kg i.p. twice a week; after three weeks of treatment
# Protocol: Dissociated C28 colon tumor cells (10,000 cells) were injected subcutaneously into 6-8 week old male NOD/SCID mice. Tumors were allowed to grow for 56 days until they reached an average volume of 175 mm^3. The mice were randomized (n=10 per group) and treated with FZD8-Fc constructs 54F03, 54F23, 54F26, or a control antibody at a dose of 15 mg/kg twice a week. Administration of the FZD8-Fc variants and control antibody was performed via injection into the intraperitoneal cavity. Tumor growth was monitored and tumor volumes were measured with electronic calipers at the indicated time points. Data are expressed as mean±S.E.M.
# PN13 tumors [2] = assay: Alcian blue and Ki67 staining of treated PN13 tumors; type: in vivo, NOD/SCID mice; conditions: FZD8-Fc 15 mg/kg i.p. twice weekly, 19 days, vs control antibody
# Protocol: as §1, with “peroxidases. Anti-Ki67 antibody (Dako, clone MIB-1) at 1:200 dilution in blocking buffer (3% NHS, 1% BSA, 0.1% Tween-20, in PBS) was added to each section and incubated for 1 hour. Slides were rinsed 3 times in PBST for 5 minutes each.” for “peroxidases.”
# [3] = system: canonical Wnt signaling pathway; assay: Luciferase reporter assay in STF293 cells with Wnt3a-conditioned medium; type: cell-based; conditions: blocking of Wnt3a-induced luciferase in STF293 cells; relative to reference standard set at 100%
# Protocol: The ability of the FZD8-Fc variants to block or inhibit activation of the Wnt signaling pathway was determined in vitro using a luciferase reporter assay. STF293 cells were cultured in DMEM supplemented with antibiotics and 10% FCS. The STF293 cells are stably transfected with a reporter vector containing seven copies of the TCF transcriptional response element linked to a promoter upstream of a firefly luciferase reporter gene. This construct measures the activity of the canonical Wnt signaling pathway. The cells were added to cultures plates at 10,000 cells per well. After an overnight incubation the FZD8-Fc variants or control mouse JAG1-Fc were added in combination with Wnt3a-conditioned medium. The FZD8-Fc variants and JAG1-Fc were used at concentrations of 20, 4, 0.8, 0.16, 0.03, 0.006, 0.0012, and 0.0003 ug/ml. The cells were incubated in 25% Wnt3A-conditioned medium that had been prepared from L cells that stably express Wnt3a. After overnight incubation (approximately 18 hrs), luciferase levels were measured using a Steady-Glo® luciferase assay kit (Promega, Madison, Wis.).
# The blocking activity of the FZD8-Fc variants was determined and is presented in Table 3 as relative activity as compared to the same reference standard run in each assay which was set at 100%.
# PE13 breast tumor = PE13 breast tumor xenograft, tumor growth; type: in vivo, NOD/SCID mice; conditions: FZD8-Fc 5 mg/kg i.p. twice a week, single agent
# Protocol: Dissociated PE13 breast tumor cells (50,000 per animal) were injected subcutaneously into the mammary fat pads of NOD/SCID mice. Mice were monitored weekly and tumors were allowed to grow until they were approximately 106 mm^3. On day 27 post cell injection the mice were randomized into four treatment groups (n=10 mice/group) and treated with control antibody, FZD8-Fc (54F03), taxol or a combination of FZD8-Fc and taxol. Taxol was administered intraperitoneally at a dose of 7.5 mg/kg once a week and FZD8-Fc was administered intraperitoneally at a dose of 5 mg/kg twice a week.
# PN4 tumors = assay: Flow cytometry for ESA and CD44 on treated PN4 tumors; type: in vivo, NOD/SCID mice; conditions: PN4 tumors harvested day 85, 5 tumors pooled; control antibody 12.7%
# Protocol: Control and treated tumors from the OMP-PN4 xenograft study described above were harvested at the end of the study (day 85). The tumors were processed and dissociated into single cells. Single cell suspensions derived from 5 tumors of each treatment group were pooled, and the pooled samples were then incubated on ice for 30 min with antibodies that bind mouse cells selectively (α-mouse CD45-biotin 1:200 dilution and rat α-mouse H2Kd-biotin 1:100 dilution, BioLegend, San Diego, Calif.), followed by addition of streptavidin-labeled magnetic beads (Invitrogen, Carlsbad, Calif.). Mouse cells were removed with the aid of a magnet. For analysis of human cell surface markers, the single tumor cell suspension was stained with anti-ESA (Biomeda, Hayward, Calif.) and anti-CD44 (BD Biosciences, San Jose, Calif.) antibodies which were directly conjugated to fluorochromes. Dead cells were excluded by using the viability dye DAPI. Flow cytometry was performed using a FACS Aria instrument (Becton Dickinson, Franklin Lakes, N.J.). Side scatter and forward scatter profiles were used to eliminate cell clumps.
substance,measurement,setting,value
54F03: Fri domain of human FZD8 fused to human IgG1 Fc with GRA linker; SEQ ID NO:1,cells expressing CK20,PN13 tumors [1],increase in cells expressing CK20
same,reduction of tumor growth as compared to control antibody,C28 colon tumor,48%
same,cells expressing sialomucins (alcian blue),PN13 tumors [2],increase in cells expressing sialomucins
same,proliferating cells denoted by expression of Ki67,PN13 tumors [2],decrease in proliferating cells
same,% Relative Activity,[3],107% and 143%
same,reduction of tumor growth relative to control antibody,PE13 breast tumor,20%
same,bulk tumor population expressing both ESA and CD44 at high levels (double positive population),PN4 tumors,1.9%
